PMC10799085, “A miniaturized mode-of-action profiling platform enables high throughput characterization of the molecular and cellular dynamics of EZH2 inhibition” (Scientific Reports, 2024)
Where “and” joins values, the source holds several entries; their conditions need not be identical. Equal entries are not always repeated. Where two headings read alike, the source gives them in different places.

How the values were obtained:
[1] = molecular target: T1, PRC2/EZH2+/+ (Homo sapiens, UniProt Q15910); experiment: Equilibrium binding thermodynamics (van't Hoff analysis of ePCA/kPCA at 5-37 °C); settings: ePCA at 5-37 °C, wild type EZH2
T1 construct: purchased Active Motif
Method: For thermodynamic analysis of the binding to EZH2+/+ the probe characterization, equilibrium and kinetic probe competition assays described above (previously conducted at 25 °C) were performed at 5, 15, 30 and 37 °C. […] For measurements at 25, 30 and 37 °C, the temperature control functionality of the instrument was used.
Equilibrium and kinetic binding constants obtained at various temperatures were used to determine the thermodynamic parameters by van’t Hoff and Eyring analysis, as described elsewhere for SPR and radioligand binding experiments[46],[69]. For the van’t Hoff thermodynamic analysis, changes in entropy ΔS° and enthalpy ΔH° were estimated by linear regression using the van’t Hoff equation. lnKA=ΔS^∘/R-ΔH^∘/RT,
Changes in Gibb’s free energy ΔG° were calculated according to. ΔG^∘T=ΔH^∘-T×ΔS^∘
Additionally, the possible temperature dependence of the thermodynamic parameters was considered using the integrated form of the van’t Hoff equation[47] for nonlinear regression to yield the changes in entropy, enthalpy, and heat capacity ΔCp: ln KA=-ΔH^∘T^∘/RT+ΔS^∘T^∘/R+ΔCp/R[T-T^∘/T-lnT/T^∘],

[2] = tested on: KARPAS-422 cells; experiment: Cellular proliferation assay (AlamarBlue, 144 h); format: cell-based; settings: KARPAS-422 cells, 6-day (144 h), AlamarBlue; read-out: KARPAS (6-day) Anti-proliferation IC50
Method: Cell viability was determined by means of the AlamarBlue® reagent (Thermo Fisher Scientific) following instructions from the manufacturer. […] Anti-proliferative IC50s were calculated by fitting the normalized AlamarBlue® fluorescence values to a 4-parameter logistic equation using the Electronic Notebook (ELN) software from IDBS.

[3] = molecular target: T2, PRC2/EZH1 (Homo sapiens, UniProt Q92800); experiment: Scintillation proximity assay (SPA) of H3K27 methylation; format: biochemical
T2 construct: N-terminal 6His-tagged full length EZH2^Y641N, EZH2^Y111L, EZH2^Y111D, EZH2^Y641N, Y661DEZH2, EZH1; 6His (N); made in house; host or cells: Sf9 insect cells (baculovirus co-infection)
Method: Assay-ready plates containing 50 nl of compound dilutions and DMSO controls were filled with 2.5 µL enzyme solution and pre-incubated for 15 min. […] Experiments were also performed without pre-incubation of enzyme and compounds. In this case, the substrate solution was added before enzyme. The reaction was stopped using 1.6 µg/µl streptavidin beads (Perkin Elmer) and 700 µM of SAM (Perkin Elmer). The plates were sealed with transparent foil.
For equilibrium binding competition (ePCA) and SPA enzyme inhibition assays, raw data import, quality control, normalization, and curve fitting to a 4-parameter logistic equation for IC50 determination were performed using the Genedata Screener® software (Genedata AG). ePCA Ki values were either calculated using the Cheng-Prussof equation[68] or with the GraphPad Prism model “One-site—Fit Ki”.

[4] = molecular target: T1, PRC2/EZH2+/+; experiment: Kinetic probe competition assay (kPCA), TR-FRET; format: binding
Method: (§1) Biotinylated PRC2 complexes and the fluorescent probe used in TR-FRET assays were generated as described in the supplementary methods section.
For measurements at 25, 30 and 37 °C, the temperature control functionality of the instrument was used.
TR-FRET kPCA traces were exported via Microsoft Excel to GraphPad Prism, where non-specific signals were subtracted and kinetic association competition traces were fitted to the Motulsky–Mahan model “kinetics of competitive binding” to obtain kon (k3), koff (k4) and KD parameters.

[5] = molecular target: T3, PRC2/EZH2Y641N (Homo sapiens, UniProt Q15910, Y641N); experiment: Kinetic probe competition assay (kPCA), TR-FRET; format: binding; settings: calculated
T3 construct: Synthetic cDNA encoding N-terminal 6His-tagged full length EZH2^Y641N; 6His (N); made in house; host or cells: Sf9 insect cells (baculovirus co-infection)
Source text: as §1

[6] = tested on: H3K27me3 mark in MDA-MB-231 cells; experiment: High content analysis (HCA) of cellular H3K27me3 mark, washout format; format: cell-based; settings: for IC50: H3K27 methylation HCA, read-out: Mean IC50
Method: In the low- and high-signal control wells, test compounds were replaced by 10 µM of EZH2 inhibitor (equal to unlabeled probe from ePCA and kPCA) or DMSO, respectively. […] After fixation, the cells were washed with PBS and incubated with 1% BSA blocking solution at RT for 1 h. Blocking solution was discarded, primary monoclonal antibody rabbit Tri-methyl-histone H3K27 (C36B11, Cell signaling) diluted 1:200 in blocking solution was added and incubated overnight at 4 °C. […] Afterwards, cells were washed three times with PBS and incubated at 4 °C until measuring. Fluorescence signals were captured by an Opera Phenix™ High Content Screening (HCA) system (Perkin Elmer) by 10× magnification. […] Microscopy images were initially visualized and preprocessed with MetaXpress High Content Image Acquisition & Analysis Software (Molecular Devices) as previously described. Raw data import, normalization, quality control and fitting curves for IC50 determination of tested compounds were done with Genedata Screener® for high-content screening. Wells with no recognizable signals were masked and the average intensity of the trimethylation signal was normalized to the DMSO control (0%).

[7] = in vitro; format: in vitro ADME; settings: 2 µM, 2 h, 37 °C, basolateral to apical
Method: Cells were kept at 37 °C in a humidified 5% CO2 atmosphere. Before the permeation assay was run, the culture medium was replaced by an FCS-free HEPES carbonate transport buffer (pH 7.2). For assessment of monolayer integrity, the transepithelial electrical resistance was measured. Test compounds were pre-dissolved in DMSO and added either to the apical or basolateral compartment at a final concentration of 2 µM. Before and after 2 h incubation at 37 °C, samples were taken from both compartments. Analysis of compound content was conducted after precipitation with methanol by LC/MS/MS analysis. Reference compounds were analyzed in parallel as assay control. Permeability (Papp) was calculated in the apical to basolateral (A → B) and basolateral to apical (B → A) directions. The efflux ratio basolateral (B) to apical (A) was calculated by dividing Papp B–A by Papp A–B.

[8] = molecular target: T1, PRC2/EZH2+/+; experiment: Kinetic titration (association then dissociation) of the fluorescent probe, TR-FRET; format: binding; settings: for Kinetic koff / Kinetic kon: listed as fluorescent EZH2 probe
[9] = molecular target: T3, PRC2/EZH2Y641N; experiment: Equilibrium titration of the fluorescent probe, TR-FRET, -/+ H3K27me3 activator peptide; format: binding; settings: EZH2 Y641N, 25 °C
[10] = molecular target: T1, PRC2/EZH2+/+; experiment: as above; format: binding
[11] = molecular target: T3, PRC2/EZH2Y641N; experiment: Kinetic titration (association then dissociation) of the fluorescent probe, TR-FRET; format: binding; settings: EZH2 Y641N, 25 °C; for Kinetic koff / Kinetic kon: listed as fluorescent EZH2 probe
[12] = tested on: EZH2; set-up: method as in Konze et al. [41]; settings: 40-fold higher enzyme concentration; ref Konze et al. [41]; cited from earlier work

Compound: CC[C@H](C)n1cc(C)c2c(C(=O)NCc3c(C)cc(C)[nH]c3=O)cc(-c3ccc(N4CCNCC4)nc3)cc21 [Compound 4, GSK126]
- binding driving force, polynomial van't Hoff analysis [1]: entropy-driven
- IC50 [2]: 280 nM
- IC50 ([3]; 0' enzyme:inhibitor pre-incubation, read-out: SPA Mean IC50 (M) - 0' enzyme:inhibitor pre-incubation EZH1): 1.1e-06 M
- IC50 ([3]; 15' enzyme:inhibitor pre-incubation, read-out: SPA Mean IC50 (M) - 15' enzyme:inhibitor pre-incubation EZH1): 4.4e-07 M
- IC50 ([3]; 60' enzyme:inhibitor pre-incubation, read-out: SPA Mean IC50 (M) - 60' enzyme:inhibitor pre-incubation EZH1): 1e-06 M
- Calculated RT ([4]; EZH2+/+ (+ H3K27me3)): 0.44 h
- RT (Calculated) ([4]; EZH2+/+ (- H3K27me3), 15 °C): 0.0145 h
- RT (Calculated) ([4]; EZH2+/+ (- H3K27me3), 30 °C): 0.031 h
- RT (Calculated) ([4]; EZH2+/+ (- H3K27me3), 37 °C): 0.0092 h
- Calculated RT ([4]; EZH2+/+ (- H3K27me3)): 0.06 h
- Calculated RT ([5]; EZH2Y641N (+ H3K27me3)): 0.22 h
- Calculated RT ([5]; EZH2Y641N (- H3K27me3)): 0.0666 h
- IC50 ([6]; incubation time 0.5 h, washout time 71.5 h): 5800 nM
- IC50 ([6]; incubation time 1 h, washout time 71 h): 2900 nM
- IC50 ([6]; incubation time 2 h, washout time 70 h): 2400 nM
- IC50 ([6]; incubation time 4 h, washout time 68 h): 1800 nM
- IC50 ([6]; incubation time 24 h, washout time 48 h): 1400 nM
- IC50 ([6]; incubation time 48 h, washout time 24 h): 700 nM
- IC50 ([6]; incubation time 72 h, washout time 0 h): 310 nM
- AUC (a.u.) ([6]; HCA H3K27 methylation washout pIC50 AUC over all incubation/washout times): 81.2 a.u.
- PK Caco-2 Flux Papp B-A (mean) [7]: 9.838 ×10⁻⁶ cm/s

Compound: CCCc1cc(C)[nH]c(=O)c1CNC(=O)c1cc(-c2ccc(N3CCN(CCCCCCNC(=O)CCCCCN4\C(=C/C=C/C=C/C5=[N+](CCOC)c6ccc(S(=O)(=O)O)cc6C5(C)C)C(C)(C)c5cc(S(=O)(=O)O)ccc54)CC3)nc2)cc2c1cnn2C(C)C.O=C(O)C(F)(F)F.O=C([O-])C(F)(F)F [fluorescent probe, 2-[(1E,3E)-5-[(2Z)-3,3-dimethyl-1-{5-[(6-{4-[5-(4-{[(6-methyl-2-oxo-4-propyl-1,2-dihydropyridin-3-yl)methyl]carbamoyl}-1-(propan-2-yl)-1H-indazol-6-yl)pyridin-2-yl]piperazin-1-yl}hexyl)carbamoyl]pentyl}-5-sulfo-2,3-dihydro-1H-indol-2-ylidene]penta-1,3-dien-1-yl]-1-(2-methoxyethyl)-3,3-dimethyl-5-sulfo-3H-indol-1-ium trifluoroacetic acid trifluoroacetate]
- Kd ([8]; with AP, 25 °C): 0.65 nM and 0.653 nM
- koff ([8]; with AP, 25 °C): 0.00073 s⁻¹
- kon ([8]; with AP, 25 °C): 1.2e+06 M⁻¹ s⁻¹
- Kinetic koff ([8]; with AP, 25 °C): 0.000728 s⁻¹
- Kinetic kon ([8]; with AP, 25 °C): 1.16e+06 M⁻¹ s⁻¹
- Kd ([8]; without AP, 5 °C): 1.16 nM
- koff ([8]; without AP, 5 °C): 0.000177 s⁻¹
- kon ([8]; without AP, 5 °C): 152000 M⁻¹ s⁻¹
- Kd ([8]; without AP, 15 °C): 0.53 nM
- koff ([8]; without AP, 15 °C): 0.000505 s⁻¹
- kon ([8]; without AP, 15 °C): 953000 M⁻¹ s⁻¹
- Kd ([8]; without AP, 25 °C): 1.4 nM and 1.43 nM
- koff ([8]; without AP, 25 °C): 0.0027 s⁻¹
- kon ([8]; without AP, 25 °C): 2e+06 M⁻¹ s⁻¹
- Kinetic koff ([8]; without AP, 25 °C): 0.00273 s⁻¹
- Kinetic kon ([8]; without AP, 25 °C): 1.96e+06 M⁻¹ s⁻¹
- Kd ([8]; without AP, 30 °C): 5.98 nM
- koff ([8]; without AP, 30 °C): 0.0051 s⁻¹
- kon ([8]; without AP, 30 °C): 853000 M⁻¹ s⁻¹
- Kd ([8]; without AP, 37 °C): 3.71 nM
- koff ([8]; without AP, 37 °C): 0.00823 s⁻¹
- kon ([8]; without AP, 37 °C): 2.22e+06 M⁻¹ s⁻¹
- Kd ([9]; with H3K27me3 (AP)): 2.7 nM and 2.72 nM
- Kd ([9]; without H3K27me3 (AP)): 9.56 nM
- Kd ([10]; EZH2+/+, with H3K27me3 (AP), 25 °C, read-out: Equilibrium KD): 0.39 nM and 0.393 nM
- Kd ([10]; EZH2+/+, without H3K27me3 (AP), 25 °C, read-out: Equilibrium KD): 1.13 nM
- Kd ([10]; wild type EZH2, absence of H3K27me3 peptide, read-out: affinity in equilibrium conditions): 1.1 ± 0.2 nM
- Kd ([10]; wild type EZH2, saturating concentrations of H3K27me3 peptide, read-out: affinity in equilibrium conditions): 0.4 ± 0.01 nM
- Kd ([11]; with AP): 3.8 nM and 3.76 nM
- koff ([11]; with AP): 0.0035 s⁻¹
- kon ([11]; with AP): 1e+06 M⁻¹ s⁻¹
- Kinetic koff ([11]; with AP): 0.00345 s⁻¹
- Kinetic kon ([11]; with AP): 1.01e+06 M⁻¹ s⁻¹
- Kd ([11]; without AP): 27 nM
- koff ([11]; without AP): 0.018 s⁻¹
- kon ([11]; without AP): 680000 M⁻¹ s⁻¹
- Kinetic koff ([11]; without AP): 0.0177 s⁻¹
- Kinetic kon ([11]; without AP): 679000 M⁻¹ s⁻¹

Compound: UNC2239
- IC50 [12]: 20 nM
